Data from US5821046A, “RNA oligonucleotides that bind HIV tat protein” (RiboTargets Holdings PLC, priority 1990, dated 1998).
Where “and” joins values, the source holds several entries; their conditions need not be identical. Equal entries are not always repeated. Where two headings read alike, the source gives them in different places.

Assays:
HIV-1 tat protein = test: direct filter binding assay of tat to TAR RNA (saturation binding, Scatchard analysis); conditions: for affinity of tat binding compared with wild type: gel retardation and filter binding assays (data not shown); for Kd: direct filter binding, HIV-1 TAR from saturation binding/Scatchard plot, mutants estimated from half-maximal binding, read-out: Kd (dissociation constant of tat binding)
Experimental: The results shown graphically in FIG. 4 are from experiments in which binding reactions (500 ul) contained 40 nMolar^32 P uniformly radiolabelled TAR RNA at a specific activity of 100,000 Ci/mole; 0.5 ug calf thymus DNA; 0.2 ug yeast TRNA; 40 units RNAsin (Promega); 50mm Tris-HCl pH 7.9 and 20 mM KCl. Reaction mixtures were set up on ice and increasing amounts of HIV-1 tat protein were added and the reaction mixtures were filtered through prewashed nitrocellulose filters (Millipore 0.45 uM pore size). The filters were dried and counted by liquid scintillation counting. The fraction of radiolabeled RNA bound was plotted against HIV-1 tat concentration.
Binding was measured by a filter-binding assay as described below under "Method", using monomeric tat protein prepared by CNBr cleavage of a human growth hormone-tat fusion protein expressed in E. coli. Reactions for saturation binding contained labeled TAR RNA [SEQ ID NO: 1] or antisense TAR RNA [SEQ ID NO: 6] at 10 nm and between 0 to 300 nM purified tat protein. Antisense TAR RNA was used as a control, since antisense TAR is unable to form stable complexes with tat in gel-retardation assays (Dingwall et al., 1989).
The stoichiometry of the tat/TAR interaction was determined by varying the TAR RNA concentrations over a wide range, while keeping the tat protein concentration constant near the Kd. For this Scatchard analysis, the tat protein concentration was held constant at 40 nM and the RNA concentration was varied between 7nM and 320 nM. The total amount of labeled RNA was kept constant in the binding reactions, but the specific activity of the RNA was varied. […]
Tat protein was prepared either from beta-galactosidase-tat fusion proteins (6) or from human growth-hormone-tat fusion proteins (85) using an improved method. In brief, inclusion body pellets containing the fusion protein were solubilized in 7M GdHCl, 50 mM Tris-HCl pH8.0, 2 mM EDTA, 2mM DTT and the fusion protein was purified to near homogeneity by ion-exchange chromatography on Q-Sepharose and S-Sepharose (Pharmacia) in buffers containing […], 50 mM Tris-HCl pH8.0, 2mM EDTA, 2mM DTT. The cysteine residues were protected by disulphide-exchange with 20 mM 2-hydroxyethyldisulphide (86), and the protein was cleaved by cyanogen bromide (6). The basic tat protein was then separated from the acidic human growth hormone peptides by ion-exchange chromatography on Q-Sepharose and S-Sepharose in 6M Urea. The protecting groups were then removed from the protein by addition of 10 mM DTT and the protein refolded by stepwise dialysis against 6 m Urea, 5M Urea,3M Urea, 1M Urea and 0M Urea in a buffer containing 50 mM Tris-HCl pH8.0, 100 uM DTT, 10 uM ZnCl2 Tat protein refolded in this manner elutes as a monomer from Superose 12 columns (Pharmacia) and migrates as a single band on polyacrylamide gels. Protein prepared by both methods behaved comparably in binding assays.
A wide variety of parameters affecting the binding of tat protein to TAR RNA were studied and binding conditions were optimized. Binding of tat to TAR has a distinct pH optimum at pH 8.0, but good binding is observed between pH 7.5 and pH 8.5. Tat/TAR complexes are very sensitive to ionic strength. […] Addition of Zn^+2, Cd^+2, Ca^+2, Mg,^+2, Fe^+2 or Fe^+3 ions to the reaction mixtures […]. However, the binding reaction is sensitive to EDTA at greater than 0.1 mM EDTA. Complex formation is also somewhat temperature sensitive. Optimal binding is observed at 0°C. Between 15° C. and 30° C. there is a 30% reduction in complex formation. […]

[1] = tested on: tat-dependent promoter activity of viral LTR carrying the TAR sequence; test: trans-activation CAT assay, test plasmids transfected into HeLa/C63/tat cells; assay type: cell-based, HeLa/C63/tat (clone 9) cells
Excerpt: If tat binding to TAR is necessary for trans-activation, then viral LTRs carrying TAR sequences with low affinities for tat should always have reduced tat-dependent promoter activity in vivo. Site-directed mutagenesis experiments on TAR have shown that trans-activation requires sequences in both the U-rich bulge (10, 11) and the loop sequence (12, 27, 28). These observations have now been extended, using TAR mutations with known affinities for tat in transfection experiments, the results of which are shown in FIG. 8. The experiments used either HeLa cells (FIG. 8a-d) or a constitutive producer of tat, HeLa/C63/tat cells (FIG. 8e-f).
The TAR sequences depicted in FIG. 3 [SEQ ID NO: 1-11] were introduced into a test plasmid, pD5-3-3, which carries a LTR and approximately 300 bases of 5' flanking sequences derived from the infectious proviral clone NL4 (29). The bacterial chloramphenicol acetyltransferase (CAT) gene and SV40 intron and terminator sequence from pSV2-CAT (30) was inserted downstream of TAR by cloning into the HindIII site at +77. Trans-activation was measured either by cotransfection of HeLa cells with the test plasmids and the tat expression plasmid pC63-4-1 (6) (panels a-d in FIG. 10), or by transfection of the test plasmids alone into HeLa/C63/tat (clone 9) cells (panels e-h).
In these experiments, cells were plated at a density of 3×10^5 in a T25 flask and transfected by the calcium phosphate method (31). Transfections in HeLa cells used 8.0 ug of test plasmid, 1.0 to 10 ug of pC63-4-1 plasmid and 10 ug of calf thymus carrier DNA. Transfections of the HeLa/C63/tat (clone 9) cells used 0.5 to 10 ug of test plasmid and 10 ug of calf thymus carrier DNA. The HeLa/C63/tat (clone 9) cells were prepared by infection of HeLa cells with helper-free amphotrophic C63-4-1 MoMuLV-tat virus. Following selection in 2mg/ml G418 individual clones were expanded and the expression of tat protein confirmed by immunoprecipitation with monoclonal antibodies to tat (6). Cell extracts were prepared at 48h post-transfection in 150 ul lysis buffer (0.2% NP40, 20 mM Tris pH 8.0, 4mM MgCl2), heat inactivated at 65° C. for 10 min and stored at -20° C. To ensure that CAT activity was measured in the linear range of the assay (30), at less than 50% conversion of chloramphenicol in its acetylated forms, for each transfection, three different aliquots containing from 5 to 70 ul extract were assayed for CAT activity. Reactions contained extract diluted with lysis buffer to a final volume of 70 ul, 10 ul AcCoA (2.5mg/ml in lysis buffer); 0.5 ul (14C) - chloramphenicol (60 mCi/m mol) and were incubated for 45 min at 37° C. Reaction products were extracted with ethylacetate, separated by thin layer chromatography on silica plates and bands were counted in scintillation fluid to calculate the chloramphenicol conversion efficiency per 10 ul of extract.

Substance	affinity of tat binding compared with wild type (HIV-1 tat protein)	CAT expression [1]	Kd (HIV-1 tat protein) [nM]	further results
ASS: anti-sense lower stem, sense upper stem and loop sequences (GGGUUCCCUAGUUAGACCAGAUUUGAGCCUGGGAGCUCUCUGGCUAACCAGAGAGACCC; chemistry not given here)	bind tat with wild-type affinities	wild-type expression levels		
SAS: anti-sense upper stem flanked by sense lower stem and loop sequences (GGGUCUCUCUGGUUAGCCAGAGAGCCUGGGAGCUCAAAUCUGGUCUAACUAGGGAACCC; chemistry not given here)	bind tat with significantly reduced affinities	no significant increase over basal levels of CAT expression		
SSA: sense stem, antisense loop sequence (GGGUCUCUCUGGUUAGACCAGAUUUGAGCUCCCAGGCUCUCUGGCUAACUAGGGAACCC; chemistry not given here)	bind tat with wild-type affinities	no significant increase over basal levels of CAT expression		
HIV-1 TAR (UUU): full length HIV-1 TAR RNA of 59 residues prepared by transcription, wild type, UUU bulge (GGGUCUCUCUGGUUAGACCAGAUUUGAGCCUGGGAGCUCUCUGGCUAACUAGGGAACCC; unmodified RNA) [reference compound]			12	stoichiometry v, moles of RNA bound per mole of protein (HIV-1 tat protein; Scatchard analysis, 40 nM tat, RNA 7-320 nM): approximately one; Kd (HIV-1 tat protein; listed as HIV-1 TAR RNA): 12 nM; Kd (HIV-1 tat protein; listed as TAR RNA): 12 nM; Kd (HIV-1 tat protein; listed as TAR): 11.8 nM and 12 nM
delta U (bulge): TAR RNA in which residues 23-25 are deleted (GGGUCUCUCUGGUUAGACCAGAGAGCCUGGGAGCUCUCUGGCUAACUAGGGAACCC; RNA, backbone not given here)		null phenotypes	> 70	
G28 to C28: TAR point mutation expected to disrupt the top of the TAR stem/loop structure (GGGUCUCUCUGGUUAGACCAGAUUUGACCCUGGGAGCUCUCUGGCUAACUAGGGAACCC; chemistry not given here)		null phenotypes	> 100	Kd (HIV-1 tat protein; listed as SEQ ID NO: 10): 100 nM
G to U (loop): TAR RNA in which residues 32-34 are changed to uridine (U) (GGGUCUCUCUGGUUAGACCAGAUUUGAGCCUUUUAGCUCUCUGGCUAACUAGGGAACCC; RNA, backbone not given here)		significant CAT activity observed at high plasmid concentrations	25	
